Laboratory results from article PMC8752738, “A propolis-derived small molecule ameliorates metabolic syndrome in obese mice by targeting the CREB/CRTC2 transcriptional complex” (Nature Communications, 2022).
Values joined by “and” are separate entries in the source; they are usually repeats but may differ in a detail not shown here. Identical values can stand only once.

What was measured:
AMPK = test: Phospho-AMPK immunoblot in primary hepatocytes; assay type: cell-based, mouse; details: for relative p-AMPK protein, mean: N=3 (0 μM = 1); for relative p-AMPK protein: Supp. fig.3e, individual replicates
Protocol: (§1) Immunoblotting and immunoprecipitation assays were performed as previously described, with antibodies recognizing CREB, Ser133-P-CREB, AMPK, P-AMPK, AKT, P-AKT (Cell Signaling), PGC-1α (Merck), CRTC2 (Calbiochem), PCK1 (Santa Cruz), SREBP1 (Santa Cruz), SREBP2 (BD), HA (Convance), LXRα (Santa Cruz), FLAG (Sigma), GST (Covance), HIS (Abmart), GAPDH (AOGMA), α-TUBULIN (Abmart), β-ACTIN (Abmart), and other antibodies (Supplementary Table 3). For immunostaining assays, primary cultured hepatocytes seeded on coverslips were fixed with 4% paraformaldehyde for 20 min, permeabilized with 0.3% Triton X-100 in PBS, and then blocked by 5% normal goat serum and 0.3% Triton X-100 in PBS, followed by incubation with anti-CREB (1:1000), anti-P-CREB (1:1000), or anti-HA (1:3000) antibodies for 1 h at 4 °C. Slides were then washed, and after washing, slides were incubated with fluorochrome-conjugated secondary antibodies (Invitrogen). Slides were then washed and mounted with Vectashield mounting media containing 4, 6-diamidino-2-phenylindole (DAPI).
1 Supplementary Figure 3. APC inhibits gluconeogenesis independent of CREB-phosphorylation,
2 cell toxin or AMPK activation. […]
20 e) Phosphate-AMPK level in primary hepatocytes incubated with APC or metformin (MET) at
21 indicated concentrations (0–200 μM) for 30 minutes (top). Relative P-AMPK normalized by AMPK is […]

[1] = Cholesterol, TG, NEFA and glycerol in serum and liver; assay type: in vivo, mouse; design: liver NEFA, Mean 2 (group mean) / Plasma VLDL cholesterol in db/db mice (VLDL-C) / Plasma VLDL cholesterol in db/db mice, group mean / TC in liver_CT2KO (total cholesterol in the liver of CRTC2-KO) / TC in liver_WT (total cholesterol in the liver) / TC in liver_WT, mean / TC in liver_WT, Mean Diff. VEH vs. drug / TC in liver_CRTC2KO, mean / TC in liver_CRTC2KO, Mean Diff. VEH vs. drug: unit not given here; details: for Plasma total cholesterol, Mean 1 (drug group): N 6
Protocol: Serum total cholesterol (TC), LDL cholesterol (LDL-C), and HDL cholesterol (HDL-C) levels were detected using commercial kits (Beihua, China), and serum VLDL protein was determined by ELISA (Jiancheng, China).
The plasma TG and NEFA levels were determined using corresponding kits from Beihua (China) and WAKO (Japan), respectively. The TG levels of liver and WAT were tested by TG kit (Applygene, China). The NEFA in the liver and WAT were extracted by chloroform–methanol and then subjected to NEFA assay (WAKO).

tissue protein levels = test: Immunoblotting of tissue proteins in treated mice; assay type: in vivo, mouse; details: for Relative LXRa/ACTIN, Mean Diff. (VEH vs. treated) / Relative LXRa/ACTIN, Mean 2 (group mean) / Relative LXRa/ACTIN: Figure 7h; for Relative LXRa/ACTIN, Mean 2 (group mean): N2 = 4; for Relative LXRa/ACTIN: single replicates
Protocol: as §1

tissue mRNA levels = test: Quantitative PCR of tissue gene expression in treated mice; assay type: in vivo, mouse; details: for Mean Diff. (Veh. vs. treated; head of the quantity not shown, section just before Figure 7h): Met 200mg/kg or APC-20; for Lxra mRNA level: Figure 7g right, Met 200mg/kg, single animals
Protocol: Total RNA from cells and tissues was extracted by Trizol (Invitrogen) and reverse-transcribed into cDNA using the prime script RT reagent kit with gDNA eraser (Takara). The mRNA levels were determined using the SYBR-green PCR kit (Takara) with ABIPRISM 7900HT Sequence detector (ABI) according to the manufacturer’s protocol. The quantitative qPCR primers used in this work are listed in Supplementary Table 1. Ribosomal L32 mRNA levels were used as an internal control.

CREB-CRTC2 interaction = target: T1, CREB-CRTC2 interaction (Homo sapiens, UniProt P16220); test: CREB–CRTC2 mammalian two-hybrid assay (GAL4-Luc reporter); assay type: cell-based; details: for Relative Gal4-LUC activity, single replicates: Figure 1f, CREB-CRTC2 two-hybrid assay, DMSO control about 100; for reporter activity of CREB–CRTC2 two-hybrid assay: HEK293T, isolated compound 25 μM
T1 construct: expressed in transfected cells; host or cells: HEK293T
T1 sequence (P16220 whole entry, the tested form may be a part): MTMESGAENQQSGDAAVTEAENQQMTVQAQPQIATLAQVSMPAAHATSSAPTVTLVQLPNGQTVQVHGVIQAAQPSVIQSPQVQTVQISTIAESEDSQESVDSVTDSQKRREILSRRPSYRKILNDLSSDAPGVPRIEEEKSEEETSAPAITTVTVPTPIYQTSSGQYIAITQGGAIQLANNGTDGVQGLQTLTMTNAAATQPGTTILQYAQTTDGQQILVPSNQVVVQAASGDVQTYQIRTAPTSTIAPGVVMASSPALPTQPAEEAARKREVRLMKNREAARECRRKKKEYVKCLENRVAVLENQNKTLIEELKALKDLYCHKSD

[2] = 200 μM (first of two lines printed 200)
[3] = 200 μM (second of two lines printed 200)
[4] = liver, CRTC2KO mice, drug minus VEH
[5] = liver, CRTC2KO mice, group mean, N=4
[6] = liver, WT mice, group mean, N=4

With `CN(C)C(=N)NC(=N)N` [MET] the “relative p-AMPK protein, mean” value (AMPK; 5 μM) was 1.096, the “relative p-AMPK protein, mean” value (AMPK; 10 μM) was 1.224 and the “relative p-AMPK protein, mean” value (AMPK; 100 μM) was 1.394. The “relative p-AMPK protein, mean” value (AMPK; [2]) was 1.978, the “relative p-AMPK protein, mean” value (AMPK; [3]) was 2.005 and the “relative p-AMPK protein” value (AMPK; 5 μM) was 1.169 (2×) and 0.9483. For the same molecule, the “relative p-AMPK protein” value (AMPK; 10 μM) was 1.256 and 1.249 and 1.166, the “relative p-AMPK protein” value (AMPK; 100 μM) was 1.432 and 1.326 and 1.423 and the “relative p-AMPK protein” value (AMPK; [2]) was 2.049 and 1.941 and 1.943. For the same molecule, the “relative p-AMPK protein” value (AMPK; [3]) was 1.966 and 1.951 and 2.098, the “relative p-AMPK protein, column mean” value (AMPK; mean over all concentrations, 0 μM included) was 1.449 and the “Plasma total cholesterol, Mean Diff. vs. VEH” value ([1]; Figure 6h, CRTC2KO mice) was 28.04 mg/dL. The “Plasma total cholesterol, Mean 1 (drug group)” value ([1]; Figure 6h, CRTC2KO mice, group mean) was 246.8 mg/dL, the “TC in plasma_CRTC2KO (plasma total cholesterol)” value ([1]; Figure 6h, CRTC2KO mice, individual mice) was 232.014 mg/dL and 251.349 mg/dL and 216.160 mg/dL and 260.242 mg/dL and 252.895 mg/dL and 268.363 mg/dL and the “Plasma total cholesterol, Mean Diff. vs. VEH” value ([1]; Figure 6h, WT mice) was -63.12 mg/dL. The “Plasma total cholesterol, Mean 1 (drug group)” value ([1]; Figure 6h, WT mice, group mean) was 215.4 mg/dL, the “TC in plasma_WT (plasma total cholesterol)” value ([1]; Figure 6h, WT mice, individual mice) was 184.451 mg/dL and 247.868 mg/dL and 232.401 mg/dL and 156.610 mg/dL and 233.948 mg/dL and 237.041 mg/dL and the “TC in liver_CRTC2KO, Mean Diff. VEH vs. drug” value ([1]; liver, CRTC2-KO mice, VEH minus drug) was -4.203. The “TG in liver_CT2KO, Mean Diff. vs. VEH” value ([1]; liver, CRTC2-KO mice, drug minus VEH) was 5.139 mg/g protein, the “TC in liver_CRTC2KO, mean” value ([1]; liver, CRTC2-KO mice, group mean (Mean 2), N=6) was 55.56 and the “TG in liver_CT2KO, mean” value ([1]; liver, CRTC2-KO mice, group mean, N=6) was 20.79 mg/g protein. For the same molecule, the “TG in liver_CT2KO” value ([1]; liver, CRTC2-KO mice, individual animals, Supp.fig.5c) was 21.7349 mg/g protein and 16.8626 mg/g protein and 22.9286 mg/g protein and 13.5919 mg/g protein and 26.3275 mg/g protein and 23.2939 mg/g protein, the “TC in liver_WT, Mean Diff. VEH vs. drug” value ([1]; liver, WT mice, VEH minus drug) was 4.549 and the “TG in liver_WT, Mean Diff. vs. VEH” value ([1]; liver, WT mice, drug minus VEH) was -8.336 mg/g protein. The “TC in liver_WT, mean” value ([1]; liver, WT mice, group mean (Mean 2), N=6) was 55.81, the “TG in liver_WT, mean” value ([1]; liver, WT mice, group mean, N=6) was 11.62 mg/g protein and the “TG in liver_WT” value ([1]; liver, WT mice, individual animals, Supp.fig.5c) was 22.699 mg/g protein and 6.6923 mg/g protein and 14.0154 mg/g protein and 7.7587 mg/g protein and 8.152 mg/g protein and 10.4144 mg/g protein. For the same molecule, the “Relative LXRa/ACTIN, Mean Diff. (VEH vs. treated)” value (tissue protein levels; CRTC2KO) was 0.07206, the “Relative LXRa/ACTIN, Mean 2 (group mean)” value (tissue protein levels; CRTC2KO) was 0.7321 and the “Relative LXRa/ACTIN” value (tissue protein levels; CT2KO) was 0.7043 and 0.6782 and 0.684 and 0.8619. The “Relative LXRa/ACTIN, Mean Diff. (VEH vs. treated)” value (tissue protein levels; WT) was 0.1998, the “Relative LXRa/ACTIN, Mean 2 (group mean)” value (tissue protein levels; WT) was 0.6958 and the “Relative LXRa/ACTIN” value (tissue protein levels; WT) was 0.7209 and 0.7206 and 0.6711 and 0.6705. For the same molecule, the “SREBP1/ACT IN CT2KO, Mean Diff. vs. VEH” value (tissue protein levels; [4]) was -0.1882, the “SREBP2/ACT IN CT2KO, Mean Diff. vs. VEH” value (tissue protein levels; [4]) was -0.07501 and the “SREBP1/ACT IN CT2KO, mean” value (tissue protein levels; [5]) was 0.4991. The “SREBP2/ACT IN CT2KO, mean” value (tissue protein levels; [5]) was 0.6794, the “SREBP1/ACT IN CT2KO (related SREBP1 protein levels in CRTC2KO liver)” value (tissue protein levels; liver, CRTC2KO mice, individual replicates, Supp.fig.5a left) was 0.5276 and 0.4764 and 0.5154 and 0.4771 and the “SREBP2/ACT IN CT2KO (related SREBP2 protein levels in CRTC2KO liver)” value (tissue protein levels; liver, CRTC2KO mice, individual replicates, Supp.fig.5a right) was 0.7097 and 0.717 and 0.6322 and 0.6586. For the same molecule, the “SREBP1/ACT IN WT, Mean Diff. vs. VEH” value (tissue protein levels; liver, WT mice, drug minus VEH) was -0.1949, the “SREBP2/ACT IN WT, Mean Diff. vs. VEH” value (tissue protein levels; liver, WT mice, drug minus VEH) was -0.2245 and the “SREBP1/ACT IN WT, mean” value (tissue protein levels; [6]) was 0.7683. For the same molecule, the “SREBP2/ACT IN WT, mean” value (tissue protein levels; [6]) was 0.8001, the “SREBP1/ACT IN WT (related SREBP1 protein levels in liver)” value (tissue protein levels; liver, WT mice, individual replicates, Supp.fig.5a left) was 0.8628 and 0.72 and 0.7576 and 0.7329 and the “SREBP2/ACT IN WT (related SREBP2 protein levels in liver)” value (tissue protein levels; liver, WT mice, individual replicates, Supp.fig.5a right) was 0.85 and 0.793 and 0.7497 and 0.8079.
For `CN(C)C(=N)NC(=N)N` [Met], the “TC in liver_CT2KO (total cholesterol in the liver of CRTC2-KO)” value ([1]; liver, CRTC2-KO mice, individual animals, Supp.fig.5d) was 69.3199 and 58.5752 and 53.7207 and 41.7006 and 49.9498 and 60.0658, the “TC in liver_WT (total cholesterol in the liver)” value ([1]; liver, WT mice, individual animals, Supp.fig.5d) was 51.5785 and 54.6034 and 57.0386 and 53.1363 and 64.5936 and 53.9126 and the “Mean Diff. (Veh. vs. treated; head of the quantity not shown, section just before Figure 7h)” value (tissue mRNA levels; CRTC2KO mice) was -0.1815. For the same molecule, the “Lxra mRNA level” value (tissue mRNA levels; Crtc2KO mice) was 0.8758 and 0.8882 and 0.7033 and 0.8771 and 1.013, the “Lxra mRNA level” value (tissue mRNA levels; WT mice) was 1.062 and 1.197 and 0.4513 and 1.258 and 0.814 and the “Mean Diff. (Veh. vs. treated; head of the quantity not shown, section just before Figure 7h)” value (tissue mRNA levels; WT mice) was 0.07313.
For `O=C(O)/C=C/c1ccc(O)cc1` [P1, (E)-p-coumaric acid], the “Relative Gal4-LUC activity, single replicates” value (from here on “Relative Gal4-LUC activity”) (CREB-CRTC2 interaction) was 70.496 and 71.1658 and 69.3726 and the “reporter activity of CREB–CRTC2 two-hybrid assay” value (“reporter activity” for short) (CREB-CRTC2 interaction) was “significantly inhibited”.
In the case of `CC(C)=CCc1cc(/C=C/C(=O)O)ccc1O` [P2, drupanin], the “Relative Gal4-LUC activity” value (CREB-CRTC2 interaction) is reported as 61.0304 and 51.9945 and 58.5603 and the “reporter activity” value (CREB-CRTC2 interaction) is reported as “significantly inhibited”.
For `O=C(/C=C/c1ccc(O)cc1)OCc1ccccc1` [P5, (E)-p-coumaric acid benzyl ester], the “Relative Gal4-LUC activity” value (CREB-CRTC2 interaction) was 49.3178 and 78.5049 and 35.7022 and the “reporter activity” value (CREB-CRTC2 interaction) was “significantly inhibited”.
In the case of `CC(C)=CCc1cc(/C=C/C(=O)O)cc(C/C=C(\C)CO)c1O` [P7, capillartemisin A], the “Relative Gal4-LUC activity” value (CREB-CRTC2 interaction) is reported as 126.493 and 128.204 and 133.801.
With `O=C(O)/C=C/c1ccc(O)c(O)c1` [P9, (E)-caffeic acid] the “Relative Gal4-LUC activity” value (CREB-CRTC2 interaction) was 57.5791 and 77.7251 and 73.1602.
With `CCOC(=O)/C=C/c1ccc(O)c(O)c1` [P10, (E)-caffeic acid ethyl ester] the “Relative Gal4-LUC activity” value (CREB-CRTC2 interaction) was 123.291 and 121.37 and 118.215.
For `CC1(C)C=Cc2cc(C=CC(=O)O)ccc2O1` [P11, 2,2-dimethylchromene-6-propenoic acid], the “Relative Gal4-LUC activity” value (CREB-CRTC2 interaction) was 49.0084 and 29.9945 and 36.8575.
